Data reported in EP0051852A1, “Pyrimido(4,5-b)(1,4)thiazines and process for their preparation” (Stiftung Forschungsinstitut Borstel, priority 1980, dated 1982).

System: E.coli(mutaflor)
Assay: Bacterial growth kinetics, Coulter Counter (total cell count)
Type: cell-based
Set-up: unit not given here
Details: Coulter Counter (Gesamtkeimzahl); 75.0 µmol/l PTZ alone; 37°C, modified Sauton medium
Source text: 2,4-Diamino-5-(3',4',5'-trimehoxybenzvl)-pyrimidins (TMP) können auf ihre eigene und in Kombination potenzierte antimikrobielle Wirkung mit Hilfe der Bakterienvermehrungskinetik wie folgt geprüft werden: • Es werden zu Bakterienkulturen (Beispiel E.coli) in der logarithmischen Wachstumsphase die genannten Inhibitoren allein oder in den oben beschriebenen Kombinationen hinzugefügt. Die Veränderung der Zahl der Bakterien als Funktion der Zeit wird mit einem Coulter Counter (Gesamtkeimzahl) bzw. mit Hilfe der Kolonienzählung (Plattentest,Lebendkeimzahl) ermittelt. Die Vermehrungskurven werden bei Abwesenheit und bei Anwesenheit der Hemmstoffe und ihrer oben beschriebenen Kombinationen ermittelt. Die aus ihnen ermittelten Änderungen in den Vermehrungsgeschwindigkeiten sin^dein Maß für die antibakterielle Wirkung.
TMP wurde 1,5 Stunden später als die anderen Verbindungen der Kultur zugesetzt.

With `Nc1nc(O)c2c(n1)SCC(CO)=N2` [PTZ, 2-Amino-4-hydroxy-6-hydroxymethyl-7H-pyrimido[4,5b][1,4]thiazin] the “beobachtete Vermehrungsgeschwindigkeitskonstanten kbeob.” value was 3.82.
